In patent US12065436B2, “Cardiac sarcomere inhibitors” (Cytokinetics, Inc., priority 2018, dated 2024):
Like-named read-outs stand apart in the source and are kept apart here.

What was measured:
[1] = target: bovine cardiac myofibrils (full-length cardiac myosin ATPase in the native sarcomere) (Bos taurus (Bovine), UniProt Q9BE39); assay: Skinned bovine cardiac myofibril ATPase assay (PK/LDH-coupled); assay type: biochemical; settings: Ca2+ activating to 75% of maximal rate; for CDMF75 IC15: concentration giving 15% inhibition; for IC50: read-out: CDMF75 IC50
In short: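 Inhibition of steady-state ATPase read at 340 nm through a PK/LDH-coupled NADH system (0.5 mM NADH, 1.5 mM PEP). Detergent-skinned bovine cardiac myofibrils, 1 mg/mL, were tested at pH 6.8 in PIPES/MgCl2 with 50 μM ATP and calcium adjusted to give pCa50 or pCa75 activation.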

[2] = test system: adult cardiac ventricular rat myocytes; assay: Adult ventricular myocyte contractility (fractional shortening); assay type: cell-based; settings: 5 min, 5 min perfusion, read-out: % FS (% reduction from baseline) ± SEM; for inhibition at 10 µM: 10 μM compound; for inhibition at 5 µM: 5 μM compound
Method: Adult male Sprague-Dawley rats were anesthetized and the hearts were quickly excised, rinsed and the ascending aorta was cannulated. Continuous retrograde perfusion was initiated on the hearts at a perfusion pressure of 60 cm H2O. Hearts were first perfused with a nominally Ca^2+-free modified Krebs solution of the following composition: 113 mM NaCl, 4.7 mM KCl, 0.6 mM KH2PO4, 0.6 mM Na2HPO4, 1.2 mM MgSO4, 12 mM NaHCO3, 10 mM KHCO3, 30 mM taurine, 5.5 mM glucose and 10 mM Hepes (all Sigma). This medium is not recirculated and is continually aerated with a 95% O2/5% CO2 mixture. After approximately 3 minutes the heart was perfused with a modified Krebs buffer supplemented with collagenase (Worthington) and 12.5 μM final calcium concentration. The heart was removed from the cannulae after the heart appeared blanched and soft in appearance. The atria and vessels were removed and the ventricles were gently dissected into smaller pieces with forceps. The tissue was homogenized by repeated pipette trituration and the collagenase reaction was stopped by 10% bovine calf serum (BCS), sedimentation and resuspension in perfusion buffer containing 5% BCS and 12.5 uM CaCl2). Myocytes were made calcium tolerant by stepwise addition of a CaCl2) solution to a final concentration of 1.2 mM. Cells were then washed and resuspended in Tyrode's buffer (137 mM NaCl, 3.7 mM KCl, 0.5 mM MgCl, 11 mM glucose, 4 mM Hepes, and 1.2 mM CaCl2), pH 7.4). Cells were kept for 60 min at 37° C. prior to initiating experiments and used within 5 hrs of isolation. […] Additionally, only cells whose basal contractility was between 3 and 8% were used in subsequent experiments with compounds.
Aliquots of myocytes in Tyrode's buffer were placed in perfusion chambers (series 20 RC-27NE; Warner Instruments) complete with heating platforms. Myocytes were allowed to attach, the chambers were heated to 37° C., and the cells were perfused with 37° C. Tyrode's buffer. Myocytes were field stimulated at 1 Hz in with platinum electrodes (20% above threshold). Only cells that had clear striations and were quiescent prior to pacing were used for contractility experiments. To determine basal contractility, myocytes were imaged through a 40× objective. […] Once cell contraction was stable over time, test compounds (0.01-15 μM) were perfused into the chambers on the myocytes for 5 minutes. Contractility of the myocytes and contraction and relaxation velocities were then recorded using edge detection.
Five or more individual myocytes were tested per compound from two or more different myocyte preparations. For each cell, twenty or more contractility transients at basal (defined as 1 min prior to compound infusion) and after compound addition (defined as 5 min after starting compound perfusion), were averaged and compared. These average transients were analyzed using the IonWizard software (IonOptix) to determine changes in diastolic length and fractional shortening. Fractional shortening was calculated as: ((resting length−length at peak contraction) divided by the resting length). The percent change in fractional shortening from baseline was calculated as: ((post-dose fractional shortening/basal fractional shortening)*100). The percent reduction in fractional shortening from baseline was calculated as: (100−percent change in fractional shortening from baseline). Maximum contraction and relaxation velocities (um/sec) was also determined. Results from individual cells are averaged and the SEM calculated.

[3] = test system: rat cardiac contractility (left ventricle fractional shortening); assay: Echocardiography of acute effect on rat cardiac contractility, oral gavage; assay type: in vivo, Sprague Dawley rats; settings: for inhibition in vivo at 10 mg/kg / IC50 / inhibition in vivo at 6 mg/kg / inhibition in vivo at 2 mg/kg / inhibition in vivo at 4.5 mg/kg: Rattus norvegicus; for inhibition in vivo at 10 mg/kg / inhibition in vivo at 6 mg/kg / inhibition in vivo at 2 mg/kg / inhibition in vivo at 4.5 mg/kg: oral gavage; for IC50 / IC10: oral dosing, estimated; for IC50: plasma concentration at which fractional shortening is 50% of pre-dose baseline; for IC10: plasma concentration at which
Method: (§1) Assessment of in vivo cardiac function by echocardiography was performed in male Sprague Dawley rats under isoflurane (1-3%) anesthesia. 2-D M-mode images of the left ventricle were acquired in the parasternal long-axis view before, during, and after administration of compounds by continuous IV infusion or oral gavage. In vivo fractional shortening was determined by M-mode image analysis with the following calculation: ((End diastolic diameter−end systolic diameter)/end diastolic diameter×100). For continuous IV infusion experiments, three pre-dose baseline M-mode images were taken at 1 minute intervals prior to infusion of compound. Compounds were formulated in 50% Propylene Glycol (PG): 16% Captisol: 10% dimethylacetamide (DMA) and delivered via a jugular vein catheter at the rate of 1 mL/kg/h. During infusion, M-mode images were taken at 5 minute intervals. The infusion stopped when fractional shortening reached up to a 60% reduction from baseline. Blood samples were taken to determine the plasma concentration of the compounds. Data was reported as an estimated IC50 value, which is the concentration at which fractional shortening is 50% of the pre-dose baseline contractility.
For oral dosing studies, three pre-dose baseline M-Mode images were taken at 1 minute intervals prior to compound administration. Compounds were formulated in a 0.5% hydroxypropyl methylcellulose 2910 (HPMC 2910): 0.1% Tween 80 suspension and delivered as a single dose (5 mL/kg) by oral gavage. Rats were lightly anesthetized for M-Mode echocardiography measurements at select time points over a 24 hour period. Different dose levels were evaluated for each compound. The compound effect on cardiac fractional shortening at the highest dose evaluated is presented in Table D as a percent reduction of baseline fractional shortening (=100%).
Concurrent with echocardiography measurements, blood samples were taken to determine the corresponding compound plasma concentration.

[4] = test system: rat cardiac contractility (left ventricle fractional shortening); assay: Echocardiography of acute effect on rat cardiac contractility, continuous IV infusion; assay type: in vivo, Sprague Dawley rats; settings: Rattus norvegicus, plasma concentration at which fractional shortening is 50% of pre-dose baseline, estimated, read-out: IC50 (Mean ± S.D.)
Method: as §1

[5] = 1 h, 1-2 h post dose, read-out: FS (% reduction from baseline) at 1-2 h post dose (Mean ± S.D.)
[6] = 4 h post dose, read-out: FS (% reduction from baseline) at 4 h post dose (Mean ± S.D.)

Sequence of bovine cardiac myofibrils (full-length cardiac myosin ATPase in the native sarcomere) (Q9BE39 whole entry): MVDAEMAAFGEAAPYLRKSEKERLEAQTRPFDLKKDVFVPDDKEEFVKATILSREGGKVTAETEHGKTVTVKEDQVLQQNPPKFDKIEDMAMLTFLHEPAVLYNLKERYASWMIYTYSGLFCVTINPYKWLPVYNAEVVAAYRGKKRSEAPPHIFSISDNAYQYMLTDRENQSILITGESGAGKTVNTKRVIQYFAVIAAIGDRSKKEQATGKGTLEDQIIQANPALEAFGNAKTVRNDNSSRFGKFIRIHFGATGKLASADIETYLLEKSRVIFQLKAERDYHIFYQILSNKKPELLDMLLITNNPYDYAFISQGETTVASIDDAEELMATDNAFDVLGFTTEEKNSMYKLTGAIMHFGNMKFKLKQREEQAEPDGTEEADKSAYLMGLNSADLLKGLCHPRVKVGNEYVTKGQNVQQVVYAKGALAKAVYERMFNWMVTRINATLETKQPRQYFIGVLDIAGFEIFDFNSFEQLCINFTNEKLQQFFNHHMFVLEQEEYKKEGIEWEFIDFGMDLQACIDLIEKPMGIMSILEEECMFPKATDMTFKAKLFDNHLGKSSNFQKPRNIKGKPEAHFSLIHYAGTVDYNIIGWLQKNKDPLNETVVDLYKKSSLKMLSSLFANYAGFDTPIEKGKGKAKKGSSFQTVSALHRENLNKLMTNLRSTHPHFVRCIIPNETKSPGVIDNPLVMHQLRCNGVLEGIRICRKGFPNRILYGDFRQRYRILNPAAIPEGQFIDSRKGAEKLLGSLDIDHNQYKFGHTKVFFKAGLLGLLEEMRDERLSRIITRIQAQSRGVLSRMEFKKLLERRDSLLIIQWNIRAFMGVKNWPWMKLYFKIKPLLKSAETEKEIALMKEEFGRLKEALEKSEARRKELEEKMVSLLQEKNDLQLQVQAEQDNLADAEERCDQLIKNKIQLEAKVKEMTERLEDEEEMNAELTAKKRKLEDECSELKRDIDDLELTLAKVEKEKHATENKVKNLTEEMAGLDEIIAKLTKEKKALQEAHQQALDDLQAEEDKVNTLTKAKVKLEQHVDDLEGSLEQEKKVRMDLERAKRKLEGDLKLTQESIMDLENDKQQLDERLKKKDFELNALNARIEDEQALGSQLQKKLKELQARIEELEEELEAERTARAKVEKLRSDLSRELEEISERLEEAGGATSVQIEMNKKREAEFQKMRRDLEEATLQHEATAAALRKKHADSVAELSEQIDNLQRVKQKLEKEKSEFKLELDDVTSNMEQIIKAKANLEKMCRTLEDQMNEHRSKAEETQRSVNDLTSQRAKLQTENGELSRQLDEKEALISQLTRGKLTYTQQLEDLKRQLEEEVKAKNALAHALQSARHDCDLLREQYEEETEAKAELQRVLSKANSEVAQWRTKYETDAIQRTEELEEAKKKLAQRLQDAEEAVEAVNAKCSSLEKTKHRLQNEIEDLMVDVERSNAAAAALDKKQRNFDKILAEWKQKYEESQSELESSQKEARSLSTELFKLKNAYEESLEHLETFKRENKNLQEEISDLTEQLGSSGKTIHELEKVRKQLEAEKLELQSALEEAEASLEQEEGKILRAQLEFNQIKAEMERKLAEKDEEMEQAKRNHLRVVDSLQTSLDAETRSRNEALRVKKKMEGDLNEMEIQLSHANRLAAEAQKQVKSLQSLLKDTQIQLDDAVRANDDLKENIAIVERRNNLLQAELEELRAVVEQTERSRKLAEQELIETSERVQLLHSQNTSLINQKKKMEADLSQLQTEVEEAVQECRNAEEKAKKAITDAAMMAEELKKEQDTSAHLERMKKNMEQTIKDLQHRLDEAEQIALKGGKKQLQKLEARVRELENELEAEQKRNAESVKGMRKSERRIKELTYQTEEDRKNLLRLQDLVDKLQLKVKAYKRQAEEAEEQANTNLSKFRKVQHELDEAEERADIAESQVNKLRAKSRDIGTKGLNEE
Sequence of bovine cardiac myofibrils (full-length cardiac myosin ATPase in the native sarcomere) (P85100 whole entry partner): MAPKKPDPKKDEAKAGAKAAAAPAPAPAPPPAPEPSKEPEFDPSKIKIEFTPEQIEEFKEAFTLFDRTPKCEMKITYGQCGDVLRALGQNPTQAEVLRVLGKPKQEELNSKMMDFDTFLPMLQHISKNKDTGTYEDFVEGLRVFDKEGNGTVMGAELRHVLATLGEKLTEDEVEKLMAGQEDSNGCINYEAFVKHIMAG
Sequence of bovine cardiac myofibrils (full-length cardiac myosin ATPase in the native sarcomere) (Q3SZE5 whole entry partner): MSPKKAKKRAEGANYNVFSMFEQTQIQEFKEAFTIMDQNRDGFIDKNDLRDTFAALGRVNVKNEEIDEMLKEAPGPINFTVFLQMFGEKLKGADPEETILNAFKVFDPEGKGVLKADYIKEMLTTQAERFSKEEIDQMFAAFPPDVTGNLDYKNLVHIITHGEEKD

Row | CDMF75 IC15 [1] | IC50 [1] | IC50 [3] | IC50 [4] | Structure (SMILES) | inhibition at 10 µM [2] | inhibition in vivo at 10 mg/kg [3, 5] | inhibition in vivo at 10 mg/kg [3, 6] | IC10 [3] | inhibition in vivo at 6 mg/kg [3, 5] | inhibition in vivo at 6 mg/kg [3, 6] | inhibition at 5 µM [2] | inhibition in vivo at 2 mg/kg [3, 5] | inhibition in vivo at 2 mg/kg [3, 6] | inhibition in vivo at 4.5 mg/kg [3, 5] | inhibition in vivo at 4.5 mg/kg [3, 6]
1 | 1140 nM | 5100 nM |  |  | Cc1cc(C(=O)NC2CCc3cc(-c4noc(C(F)F)n4)ccc32)ccn1 (stereo not drawn) [Compound 5, N-(5-(5-(difluoromethyl)-1,2,4-oxadiazol-3-yl)-2,3-dihydro-1H-inden-1-yl)-2-methylisonicotinamide] | 73.2 ± 7.1% |  |  |  |  |  |  |  |  |  | 
2 | 1000 nM | 3600 nM |  |  | Cc1cc(C(=O)N[C@@H]2CCc3cc(-c4noc(C)n4)ccc32)ccn1 [Compound 31, (R)-2-methyl-N-(5-(5-methyl-1,2,4-oxadiazol-3-yl)-2,3-dihydro-1H-inden-1-yl)isonicotinamide] | 23.3 ± 18.9% |  |  |  |  |  |  |  |  |  | 
3 | 500 nM | 2000 nM | 4900 nM |  | Cn1nnc(C(=O)N[C@@H]2CCc3cc(-c4noc(C(F)F)n4)ccc32)n1 [Compound 82, (R)-N-(5-(5-(difluoromethyl)-1,2,4-oxadiazol-3-yl)-2,3-dihydro-1H-inden-1-yl)-2-methyl-2H-tetrazole-5-carboxamide] | 89.6% | 65 ± 6% | 55 ± 8% | 1500 nM |  |  |  |  |  |  | 
4 | 700 nM | 3000 nM | 9100 nM | 8100 ± 260 nM | Cc1ncc(C(=O)N[C@@H]2CCc3cc(-c4noc(C(F)F)n4)ccc32)o1 [Compound 100, (R)—N-(5-(5-(difluoromethyl)-1,2,4-oxadiazol-3-yl)-2,3-dihydro-1H-inden-1-yl)-2-methyloxazole-5-carboxamide] |  |  |  | 2300 nM | 60 ± 4% | 40 ± 3% | 54.7% |  |  |  | 
5 | 300 nM | 1500 nM |  |  | Cc1cnoc1C(=O)N[C@@H]1CCc2cc(-c3noc(C(C)C)n3)ccc21 [Compound 116, (R)-N-(5-(5-isopropyl-1,2,4-oxadiazol-3-yl)-2,3-dihydro-1H-inden-1-yl)-4-methylisoxazole-5-carboxamide] | 72.5% |  |  |  |  |  |  |  |  |  | 
6 | 300 nM | 900 nM |  | 700 ± 20 nM | Cn1nccc1C(=O)N[C@@H]1COc2cc(-c3noc(C(F)F)n3)ccc21 [Compound 124, (S)—N-(6-(5-(difluoromethyl)-1,2,4-oxadiazol-3-yl)-2,3-dihydrobenzofuran-3-yl)-1-methyl-1H-pyrazole-5-carboxamide] | 84.6% |  |  |  |  |  |  |  |  |  | 
7 |  |  | 7900 nM | 7200 ± 200 nM | CCc1nc(-c2ccc3c(c2)CC[C@H]3NC(=O)c2cnn(C)c2)no1 [Compound 184, (R)—N-(5-(5-ethyl-1,2,4-oxadiazol-3-yl)-2,3-dihydro-1H-inden-1-yl)-1-methyl-1H-pyrazole-4-carboxamide] |  |  |  | 800 nM |  |  | 67.4% | 43 ± 9% | 31 ± 9% |  | 
8 | 600 nM | 2200 nM | 1400 nM |  | CCc1nc(-c2ccc3c(c2)CC[C@H]3NC(=O)c2cnn(CCO)c2)no1 [Compound 474, (R)—N-(5-(5-ethyl-1,2,4-oxadiazol-3-yl)-2,3-dihydro-1H-inden-1-yl)-1-(2-hydroxyethyl)-1H-pyrazole-4-carboxamide] | 75.2% |  |  | 200 nM | 64 ± 8% | 27 ± 6% |  |  |  |  | 
9 | 900 nM | 3500 nM | 3500 nM |  | CCc1nc(-c2ccc3c(c2)CC[C@H]3NC(=O)c2cnn(C[C@@H](C)O)c2)no1 [Compound 542, N-[(1R)-5-(5-ethyl-1,2,4-oxadiazol-3-yl)-2,3-dihydro-1H-inden-1-yl]-1-[(2R)-2-hydroxypropyl]-1H-pyrazole-4-carboxamide] | 68.4% |  |  | 900 nM |  |  |  |  |  | 71 ± 1% | 54 ± 7%
